According to patent US10576062B2, “Carbamoyloxymethyl triazole cyclohexyl acids as LPA antagonists” (Bristol-Myers Squibb Company, priority 2016, dated 2020):

What follows are molecules tested against T1, human LPA1 (Homo sapiens, UniProt Q92633) (assay: LPA1 functional antagonist assay (LPA-induced calcium flux)). Settings: CHO cells overexpressing human LPA1; inhibition of calcium flux induced by 10 nM LPA; read-out: hLPA1 IC50.
T1 construct: expressed in transfected cells; host or cells: Chinese hamster ovary (CHO) cells
Type: cell-based
Method in brief: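 CHO cells overexpressing human LPA1, loaded with calcium dye 30 min at 37° C, were preincubated 20 min at room temperature with compound (0.08 nM–5 μM, 0.5% DMSO) in HBSS/20 mM HEPES/0.1% fatty acid-free BSA.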

T1 sequence (Q92633 whole entry): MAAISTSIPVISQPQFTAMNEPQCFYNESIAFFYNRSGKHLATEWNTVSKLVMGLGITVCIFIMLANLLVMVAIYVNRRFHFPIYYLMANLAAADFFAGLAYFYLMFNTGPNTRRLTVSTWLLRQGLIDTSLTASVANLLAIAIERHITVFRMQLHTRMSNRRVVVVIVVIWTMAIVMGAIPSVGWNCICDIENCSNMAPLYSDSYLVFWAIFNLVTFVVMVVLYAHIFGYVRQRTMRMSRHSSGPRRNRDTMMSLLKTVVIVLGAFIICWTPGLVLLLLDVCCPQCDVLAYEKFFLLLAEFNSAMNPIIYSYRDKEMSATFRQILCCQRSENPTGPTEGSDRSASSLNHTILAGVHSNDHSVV

**Q.** CCC(F)CN(C)C(=O)OCc1c(-c2ccc(O[C@H]3CCC[C@H](C(=O)O)C3)c(C)n2)nnn1C (mixture of isomers) [Example 255, (1S,3S)-3-((6-(5-((((2-fluorobutyl)(methyl)carbamoyl)oxy)methyl)-1-methyl-1H-1,2,3-triazol-4-yl)-2-methylpyridin-3-yl)oxy)cyclohexane-1-carboxylic acid] was tested. Which IC50 did it give?
**A.** 57 nM

**Q.** CN(CC1CC1)C(=O)OCc1c(-c2ccc(O[C@H]3CCC[C@H](C(=O)O)C3)c(C(F)F)n2)nnn1C [Example 279, (1S,3S)-3-((6-(5-((((cyclopropylmethyl)(methyl)carbamoyl)oxy)methyl)-1-methyl-1H-1,2,3-triazol-4-yl)-2-(difluoromethyl)pyridin-3-yl)oxy)cyclohexane-1-carboxylic acid] was tested. Which IC50 did it give?
**A.** 21 nM

**Q.** Which IC50 does the source give for Cc1nc(-c2nnn(C)c2COC(=O)N(C)CC2(F)CCC2)cnc1O[C@H]1CCC[C@H](C(=O)O)C1 [Example 233, (1S,3S)-3-((5-(5-(((((1-fluoro-cyclobutyl)methyl)(methyl)carbamoyl)oxy)methyl)-1-methyl-1H-1,2,3-triazol-4-yl)-3-methylpyrazin-2-yl)oxy)cyclohexane-1-carboxylic acid] here?
**A.** 122 nM

**Q.** CCCN(C)C(=O)OCc1c(-c2ccc(O[C@H]3CCC[C@H](C(=O)O)C3)c(C(F)F)n2)nnn1C [Example 277, (1S,3S)-3-((2-(difluoromethyl)-6-(1-methyl-5-(((methyl(propyl)carbamoyl)oxy)methyl)-1H-1,2,3-triazol-4-yl)pyridin-3-yl)oxy)cyclohexane-1-carboxylic acid] was tested. Which IC50 did it give?
**A.** 35 nM

**Q.** CCc1nc(-c2nnn(C)c2COC(=O)N(C)CCC(C)C)ccc1O[C@H]1CCC[C@H](C(=O)O)C1 [Example 208, (1S,3S)-3-((2-ethyl-6-(5-(((isopentyl(methyl)carbamoyl)oxy)methyl)-1-methyl-1H-1,2,3-triazol-4-yl)pyridin-3-yl)oxy)cyclohexane-1-carboxylic acid] was tested. Which IC50 did it give?
**A.** 26 nM

**Q.** With CN(C(=O)OCc1c(-c2ccc(O[C@H]3CCC[C@H](C(=O)O)C3)cn2)nnn1C)C1CCCC1 [Example 2, (1S,3S)-3-((6-(5-(((cyclopentyl(methyl)carbamoyl)oxy)methyl)-1-methyl-1H-1,2,3-triazol-4-yl)pyridin-3-yl)oxy)cyclohexane-1-carboxylic Acid] as the molecule, how does the IC50 read?
**A.** 19 nM

**Q.** For CCc1nc(-c2nnn(C)c2COC(=O)N(C)C23CC(C2)C3)ccc1O[C@H]1CCC[C@H](C(=O)O)C1 [Example 206, (1S,3S)-3-((6-(5-(((bicyclo[1.1.1]pentan-1-yl(methyl)carbamoyl)oxy)methyl)-1-methyl-1H-1,2,3-triazol-4-yl)-2-ethylpyridin-3-yl)oxy)cyclohexane-1-carboxylic acid], which IC50 is on record?
**A.** 34 nM

**Q.** Which IC50 does the source give for CCc1nc(-c2nnn(C)c2COC(=O)N(C)CCC2CC2)ccc1O[C@H]1CCC[C@H](C(=O)O)C1 [Example 209, (1S,3S)-3-((6-(5-((((2-cyclopropylethyl)(methyl)carbamoyl)oxy)methyl)-1-methyl-1H-1,2,3-triazol-4-yl)-2-ethylpyridin-3-yl)oxy)cyclohexane-1-carboxylic acid] here?
**A.** 22 nM

**Q.** For Cc1nc(-c2nnn(C)c2COC(=O)N(C)CC(C)C)cnc1O[C@H]1CCC[C@H](C(=O)O)C1 [Example 224, (1S,3S)-3-((5-(5-(((isobutyl(methyl)carbamoyl)oxy)methyl)-1-methyl-1H-1,2,3-triazol-4-yl)-3-methylpyrazin-2-yl)oxy)cyclohexane-1-carboxylic acid], which IC50 is on record?
**A.** 121 nM

**Q.** Cc1nc(-c2nnn(C)c2COC(=O)N(C)CC2CCC2)ccc1O[C@H]1CCC[C@H](C(=O)NS(C)(=O)=O)C1 [Example 17, (1-methyl-4-(6-methyl-5-(((1S,3S)-3-((methylsulfonyl)carbamoyl)cyclohexyl)oxy)pyridin-2-yl)-1H-1,2,3-triazol-5-yl)methyl (cyclobutylmethyl)(methyl)carbamate] was tested. Which IC50 did it give?
**A.** 352 nM

**Q.** Cc1nc(-c2nnn(C)c2COC(=O)N(C)C2CCC2)cnc1O[C@H]1CCC[C@H](C(=O)O)C1 [Example 229, (1S,3S)-3-((5-(5-(((cyclobutyl(methyl)carbamoyl)oxy)methyl)-1-methyl-1H-1,2,3-triazol-4-yl)-3-methylpyrazin-2-yl)oxy)cyclohexane-1-carboxylic acid] was tested. Which IC50 did it give?
**A.** 76 nM

Same assay, conditions: human LPA1; read-out: hLPA1 IC50

**Q.** For Cc1nc(-c2nnn(C)c2COC(=O)N(C)CCC(C)(C)F)ccc1O[C@H]1CCC[C@H](C(=O)O)C1 [Example 187, (1S,3S)-3-((6-(5-((((3-fluoro-3-methylbutyl)(methyl)carbamoyl)oxy)methyl)-1-methyl-1H-1,2,3-triazol-4-yl)-2-methylpyridin-3-yl)oxy)cyclohexane-1-carboxylic acid], which IC50 is on record?
**A.** 50 nM

**Q.** For CN(CC1CC1(F)F)C(=O)OCc1c(-c2ccc(O[C@H]3CCC[C@H](C(=O)O)C3)cn2)nnn1C (mixture of isomers) [Example 186, (1S,3S)-3-((6-(5-(((((2,2-difluorocyclopropyl)methyl)(methyl)carbamoyl)oxy)methyl)-1-methyl-1H-1,2,3-triazol-4-yl)pyridin-3-yl)oxy)cyclohexane-1-carboxylic acid], which IC50 is on record?
**A.** 67 nM

**Q.** Which IC50 does the source give for Cc1nc(-c2nnn(C)c2COC(=O)N(C)C(C)(C)C)ccc1O[C@H]1CCC[C@H](C(=O)O)C1 [Example 170, (1S,3S)-3-((6-(5-(((tert-butyl(methyl)carbamoyl)oxy)methyl)-1-methyl-1H-1,2,3-triazol-4-yl)-2-methylpyridin-3-yl)oxy)cyclohexane-1-carboxylic acid] here?
**A.** 183 nM

**Q.** With CCCN(C)C(=O)OCc1c(-c2ccc(O[C@@H]3CCC[C@@H](C(=O)O)C3)c(C)n2)nnn1C [Example 193, (1R,3R)-3-((2-methyl-6-(1-methyl-5-(((methyl(propyl)carbamoyl)oxy)methyl)-1H-1,2,3-triazol-4-yl)pyridin-3-yl)oxy)cyclohexane-1-carboxylic acid] as the molecule, how does the IC50 read?
**A.** 1700 nM

Same assay, conditions: read-out: hLPA1 IC50

**Q.** For CN(CC1CCC1)C(=O)OCc1c(-c2ccc(O[C@H]3CCC[C@H](C(=O)O)C3)cn2)nnn1C [Example 23, (1S,3S)-3-((6-(5-((((cyclobutylmethyl)(methyl)carbamoyl)oxy)methyl)-1-methyl-1H-1,2,3-triazol-4-yl)pyridin-3-yl)oxy)cyclohexane-1-carboxylic acid], which IC50 is on record?
**A.** 12 nM

**Q.** With Cc1nc(-c2nnn(C)c2COC(=O)N2CCC3(CC3)C2)ccc1O[C@H]1CCC[C@H](C(=O)O)C1 [Example 144, (1S,3S)-3-((6-(5-(((5-azaspiro[2.4]heptane-5-carbonyl)oxy)methyl)-1-methyl-1H-1,2,3-triazol-4-yl)-2-methylpyridin-3-yl)oxy)cyclohexane-1-carboxylic acid] as the molecule, how does the IC50 read?
**A.** 89 nM

**Q.** How did the IC50 turn out when Cc1nc(-c2nnn(C)c2COC(=O)N(C)CC2COCCN2)ccc1O[C@H]1CCC[C@H](C(=O)O)C1 (stereo partly drawn) [Example 125, (1S,3S)-3-((2-methyl-6-(1-methyl-5-(((methyl(morpholin-3-ylmethyl)carbamoyl)oxy)methyl)-1H-1,2,3-triazol-4-yl)pyridin-3-yl)oxy)cyclohexane-1-carboxylic acid] was run?
**A.** 668 nM

**Q.** CN(CC1CCC1)C(=O)OCc1c(-c2ccc(O[C@H]3CCC[C@](F)(C(=O)O)C3)cn2)nnn1C (racemic) [Example 90] was tested. Which IC50 did it give?
**A.** 14 nM

**Q.** With CN(C(=O)OCc1c(-c2ccc(O[C@H]3CCC[C@](F)(C(=O)O)C3)cn2)nnn1C)C1CCCC1 (racemic) [Example 89] as the molecule, how does the IC50 read?
**A.** 32 nM

**Q.** For C[C@@H](C1CC1)N(C)C(=O)OCc1c(-c2ccc(O[C@H]3CCC[C@H](C(=O)O)C3)cc2)nnn1C [Example 52, (1S,3S)-3-(4-(5-(((((S)-1-cyclopropylethyl)(methyl)carbamoyl)oxy)methyl)-1-methyl-1H-1,2,3-triazol-4-yl)phenoxy)cyclohexane-1-carboxylic acid], which IC50 is on record?
**A.** 197 nM

**Q.** For CCC1CCCN1C(=O)OCc1c(-c2ccc(O[C@H]3CCC[C@H](C(=O)O)C3)c(C)n2)nnn1C (mixture of isomers) [Example 152, (1S,3S)-3-((6-(5-(((2-ethylpyrrolidine-1-carbonyl)oxy)methyl)-1-methyl-1H-1,2,3-triazol-4-yl)-2-methylpyridin-3-yl)oxy)cyclohexane-1-carboxylic acid], which IC50 is on record?
**A.** 157 nM

**Q.** With CCC(C1CCC1)N(C)C(=O)OCc1c(-c2ccc(O[C@H]3CCC[C@H](C(=O)O)C3)c(C)n2)nnn1C (mixture of isomers) [Example 99, (1S,3S)-3-((6-(5-((((1-cyclobutylpropyl)(methyl)carbamoyl)oxy)methyl)-1-methyl-1H-1,2,3-triazol-4-yl)-2-methylpyridin-3-yl)oxy)cyclohexane-1-carboxylic acid] as the molecule, how does the IC50 read?
**A.** 144 nM

**Q.** Which IC50 does the source give for CCCC(C)N(C)C(=O)OCc1c(-c2ccc(O[C@H]3CCC[C@H](C(=O)O)C3)cn2)nnn1C (mixture of isomers) [Example 24, (1S,3S)-3-((6-(1-methyl-5-(((methyl(pentan-2-yl)carbamoyl)oxy)methyl)-1H-1,2,3-triazol-4-yl)pyridin-3-yl)oxy)cyclohexane-1-carboxylic acid] here?
**A.** 47 nM

**Q.** How did the IC50 turn out when C[C@H](c1ccccc1)N(C)C(=O)OCc1c(-c2ccc(O[C@H]3CCC[C@H](C(=O)O)C3)cn2)nnn1C [Example 21, (1S,3S)-3-((6-(1-methyl-5-(((methyl((R)-1-phenylethyl)carbamoyl)oxy)methyl)-1H-1,2,3-triazol-4-yl)pyridin-3-yl)oxy)cyclohexane-1-carboxylic acid] was run?
**A.** 21 nM

**Q.** With CC(C)CCN(C)C(=O)OCc1c(-c2ccc(O[C@H]3CCC[C@H](C(=O)O)C3)c(F)c2)nnn1C [Example 47, (1S,3S)-3-(2-fluoro-4-(5-(((isopentyl(methyl)carbamoyl)oxy)methyl)-1-methyl-1H-1,2,3-triazol-4-yl)phenoxy)cyclohexane-1-carboxylic acid] as the molecule, how does the IC50 read?
**A.** 3 nM

**Q.** For Cc1nc(-c2nnn(C)c2COC(=O)NC23CC(C2)C3)ccc1O[C@H]1CCC[C@H](C(=O)O)C1 [Example 105, (1S,3S)-3-((6-(5-(((bicyclo[1.1.1]pentan-1-ylcarbamoyl)oxy)methyl)-1-methyl-1H-1,2,3-triazol-4-yl)-2-methylpyridin-3-yl)oxy)cyclohexane-1-carboxylic acid], which IC50 is on record?
**A.** 576 nM
